Experimental data from patent publication US20250235467A1, “DENDRITIC CELL VACCINATION IN PARALLEL TO CHEMOTHERAPY” (priority 2018, published 2025).
Where two headings read alike, the source gives them in different places. Marks after values point to notes of the source that are not given here.

Tests used:
[1] = tested on: platinum-sensitive recurrent ovarian cancer; details: cited from earlier work; for PFS HR: p <0.0001
[2] = tested on: relapsed platinum-sensitive epithelial ovarian cancer; experiment: Randomized, open-label phase II clinical trial, DC vaccine added to carboplatin and gemcitabine vs chemotherapy alone; format: in vivo, human; details: ITT population, N = 32 per group
Text: An interim analysis was first performed, followed later by the final analysis.
A total of 6, 8, or 10 cycles of standard of care chemotherapy were to be completed by patients in both treatment groups as per investigators' decision (FIG. 4).

[3] = tested on: metastatic stage IV non-small cell lung cancer (NSCLC); experiment: Open label, multicenter phase II clinical trial, DCVAC/LuCa + carboplatin and paclitaxel vs carboplatin and paclitaxel alone; format: in vivo, human; details: PP population; interim analysis of PFS
Experimental: The purpose of the study is to compare efficacy of DCVAC/LuCa+chemotherapy (carboplatin and paclitaxel) vs. carboplatin and paclitaxel alone in patients with stage IV NSCLC, as measured by OS and progression free survival (PFS). PFS was measured based on radiological assessments according to the RECIST (Response Evaluation Criteria in Solid Tumors) guidelines (version 1.1) (Eisenhauer et al. 2009).
The planned number of chemotherapy cycles was 4-6 in all treatment groups (FIG. 7).

[4] = tested on: newly diagnosed epithelial ovarian carcinoma
Experimental: The study was conducted as an open label, multicenter phase II clinical trial in women with newly diagnosed epithelial ovarian carcinoma who have undergone debulking surgery.
The planned number of chemotherapy cycles was 6 in all treatment groups (FIG. 1).
Results were calculated either by using as beginning of the trial period the time of first treatment or the time of randomization. Two pre-planned per protocol interim analyses of PFS and OS were performed first at 6 months and second at 12 months after the last dose of standard of care chemotherapy of the last enrolled patient. […]

[5] = group A: after the start of DC vaccine treatment, group B: shorter reporting time period

## Bevacizumab
[1]; bevacizumab 15 mg/kg IV q3w + carboplatin AUC4 + gemcitabine, p 0.6479
  OS HR: 0.952^c
[1]; bevacizumab 15 mg/kg IV q3w + carboplatin AUC4 + gemcitabine, p 0.6479, listed as bevacizumab
  OS HR: 0.952
[1]; bevacizumab 15 mg/kg IV q3w + carboplatin AUC4 + gemcitabine
  PFS HR: 0.48^c
[1]; bevacizumab 15 mg/kg IV q3w + carboplatin AUC5 + paclitaxel, p 0.0447
  OS HR: 0.823^c
[1]; bevacizumab 15 mg/kg IV q3w + carboplatin AUC5 + paclitaxel, p 0.0447, listed as bevacizumab
  OS HR: 0.823
[1]; bevacizumab 15 mg/kg IV q3w + carboplatin AUC5 + paclitaxel
  PFS HR: 0.613^c

## carboplatin and gemcitabine
[2]
  No. of 2nd-line chemotherapy non-responders: n (%): 0 (0.00%) n (%)

## carboplatin and paclitaxel
[3]
  Progression of the lung cancer disease: progressed for all patients
[4]; ITT population, N = 31 per group
  No. of 1st-line chemotherapy non-responders: n (%): 0 (0.00%) n (%)
[4]; [5]
  Number of SAEs reported: 14
  Number of patients in whom SAEs were reported: 9
